Test systems include NCI-H23 lung; UO-31 renal; T-47D breast; BT-549 breast; HOP-62 NSCLC; EKVX NSCLC; SK-MEL-28 melanoma; PC-3 prostate.
Holding throughout (experiment): NCI-60 cell line screen, 48 h

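Step 1: Grow cells in 96-well plates. Step 2: Expose to compound for 48 hours at 5 concentrations. Step 3: Interpolate endpoints linearly; if unreached, use highest concentration. GI50: concentration for 50% inhibition of growth. TGI marks complete inhibition of growth.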 A value given as a limit tells only on which side of the number the result lay.

For `COc1ccc(C/C(C)=C(\c2ccc(OCCN3CCOCC3)cc2)c2ccc(OC(=O)Cc3ccccc3)cc2)cc1`, the GI50 is 0.823 µM with NCI-H23 lung; 0.422 µM with UO-31 renal; 0.483 µM in the assay with T-47D breast; 0.502 µM in the assay with BT-549 breast; 0.621 µM in the assay with HOP-62 NSCLC; 0.851 µM with EKVX NSCLC. In addition, the results for the GI50 with SK-MEL-28 melanoma and in the assay on PC-3 prostate were 0.555 µM and 0.747 µM, respectively. The TGI in the assay on NCI-H23 lung is 3.3 µM; in the assay with UO-31 renal, 0.952 µM; in the assay with T-47D breast, 1.28 µM; in the assay with BT-549 breast, 0.996 µM; in the assay with HOP-62 NSCLC, 1.17 µM; in the assay on EKVX NSCLC, 3.49 µM. For the same molecule, the TGI worked out at 1.06 µM in the assay with SK-MEL-28 melanoma and 2.97 µM with PC-3 prostate.

In the case of `CCN(CCNc1ccc(C)c2sc3cc(Cl)ccc3c(=O)c12)CC(C)O` (stereo not given), the GI50 in the assay on NCI-H23 lung was 2.53 µM; in the assay with T-47D breast, 1.76 µM; with BT-549 breast it was 2.71 µM; in the assay with HOP-62 NSCLC, 1.52 µM; in the assay with EKVX NSCLC, 2.28 µM; in the assay with SK-MEL-28 melanoma, 1.91 µM. Besides, the GI50 in the assay on PC-3 prostate was 1.74 µM. The TGI is 4.77 µM in the assay with NCI-H23 lung; 4.14 µM in the assay with T-47D breast; 10.1 µM in the assay on BT-549 breast; 2.86 µM in the assay with HOP-62 NSCLC; 7.3 µM in the assay on EKVX NSCLC; 3.4 µM in the assay with SK-MEL-28 melanoma. This molecule displayed a TGI in the assay with PC-3 prostate of 3.31 µM.

As for `COC1(O)C(=O)c2ccccc2OC1(OC)c1ccccc1` (stereo not given), the TGI with NCI-H23 lung, in the assay on T-47D breast, with BT-549 breast, in the assay with HOP-62 NSCLC, in the assay on EKVX NSCLC and in the assay on SK-MEL-28 melanoma was more than 100 µM each time. For the same molecule, in the assay on PC-3 prostate, the TGI is more than 100 µM.

As to `C[C@]12CC[C@@H]3c4ccc(O)cc4CC[C@H]3[C@@H]1CC[C@@H]2NS(=O)(=O)c1cccc(C(F)(F)F)c1`, the GI50 in the assay on NCI-H23 lung was 3.76 µM; in the assay with UO-31 renal it was 2.25 µM; in the assay with T-47D breast, 3.65 µM; in the assay on BT-549 breast it was 2.7 µM; with HOP-62 NSCLC, 5.18 µM; in the assay with SK-MEL-28 melanoma, 5.87 µM. For the same molecule, the GI50 with PC-3 prostate is 2.78 µM. The TGI was determined as 15.8 µM in the assay on NCI-H23 lung; 11.6 µM in the assay on UO-31 renal; 13.4 µM in the assay on T-47D breast; 7.48 µM in the assay on BT-549 breast; 17.9 µM in the assay with HOP-62 NSCLC; 19.1 µM in the assay on SK-MEL-28 melanoma. This molecule gave a TGI in the assay on PC-3 prostate of 13.9 µM.

Consider `CCN1CCN(CC(=O)Nc2nc3ccc(NCc4ccc(Cl)cc4)cc3s2)CC1`, for which the GI50 is 3.25 µM in the assay on NCI-H23 lung; 1.62 µM in the assay with UO-31 renal; 1.94 µM in the assay on T-47D breast; 10.6 µM in the assay with BT-549 breast; 3.29 µM in the assay on EKVX NSCLC; 1.8 µM with SK-MEL-28 melanoma. Besides, the TGI was more than 100 µM with NCI-H23 lung; 3.19 µM in the assay with UO-31 renal; 5.8 µM in the assay with T-47D breast; 25 µM with BT-549 breast; more than 100 µM in the assay with EKVX NSCLC; 3.31 µM in the assay with SK-MEL-28 melanoma.

For `CN(C)c1ccc(-c2cc(-c3ccc(Nc4nc(Nc5ccccc5)nc(Nc5ccc(Cl)cc5)n4)cc3)nc(N)n2)cc1`, the GI50 with NCI-H23 lung was 8.47 µM; in the assay on UO-31 renal it was 2.69 µM; in the assay with T-47D breast, 3.04 µM; in the assay on BT-549 breast, 3.64 µM; in the assay with HOP-62 NSCLC it was 8.01 µM; in the assay with EKVX NSCLC it was 1.82 µM. Besides, the GI50 with SK-MEL-28 melanoma was 10.8 µM. For the same molecule, the TGI in the assay on NCI-H23 lung was 53.5 µM; with UO-31 renal it was more than 100 µM; in the assay on T-47D breast it was 17.9 µM; in the assay on BT-549 breast, 25 µM; in the assay with HOP-62 NSCLC, 42.4 µM; in the assay with EKVX NSCLC, more than 100 µM. The TGI with SK-MEL-28 melanoma was 29.9 µM.

On to `NC(=NC1CCCCCCC1)c1ccc(N2CCN(c3ccc(C(N)=NC4CCCCCCC4)cc3)CC2)cc1`, for which the GI50 was 6.8 µM with NCI-H23 lung; 48.3 µM in the assay on UO-31 renal; 25.8 µM with T-47D breast; 14.4 µM in the assay with HOP-62 NSCLC; 6.75 µM with SK-MEL-28 melanoma; 22.6 µM in the assay on PC-3 prostate. In addition, the TGI was 45.8 µM in the assay on NCI-H23 lung; more than 100 µM with UO-31 renal; more than 100 µM with T-47D breast; 62.8 µM in the assay on HOP-62 NSCLC; 22.8 µM in the assay with SK-MEL-28 melanoma; 46.8 µM in the assay with PC-3 prostate.

Regarding `C=CCNCCCN1C(=O)c2ccc3c4c(ccc(c24)C1=O)C(=O)N(CCCNCC=C)C3=O`, the GI50 in the assay with NCI-H23 lung was 0.392 µM; in the assay on UO-31 renal it was 0.327 µM; with BT-549 breast, 1.78 µM; in the assay on HOP-62 NSCLC, 0.372 µM; with EKVX NSCLC, 0.295 µM; with SK-MEL-28 melanoma it was 1.06 µM. Moreover, the GI50 in the assay with PC-3 prostate was 0.589 µM. In addition, the TGI was 1.42 µM with NCI-H23 lung; 2.29 µM in the assay with UO-31 renal; 3.63 µM in the assay with BT-549 breast; 1.72 µM in the assay on HOP-62 NSCLC; 1.09 µM in the assay on EKVX NSCLC; 2.6 µM in the assay on SK-MEL-28 melanoma. Moreover, the TGI in the assay with PC-3 prostate amounted to 11 µM.

With `COc1ccc(-c2nnc(SCC(=O)Nc3ccc(/C(C)=N\O)cc3)n2-c2ccccc2)cc1OC`, the GI50 was 12.9 µM in the assay with NCI-H23 lung; more than 100 µM in the assay on UO-31 renal; 9.45 µM in the assay with T-47D breast; 13.7 µM in the assay on BT-549 breast; 2.06 µM in the assay on HOP-62 NSCLC; more than 100 µM with SK-MEL-28 melanoma. In addition, the GI50 with PC-3 prostate was more than 100 µM. The TGI was more than 100 µM in the assay on NCI-H23 lung; more than 100 µM in the assay on UO-31 renal; more than 100 µM in the assay with T-47D breast; more than 100 µM in the assay on BT-549 breast; 6.8 µM in the assay on HOP-62 NSCLC; more than 100 µM with SK-MEL-28 melanoma. Also, the TGI in the assay with PC-3 prostate was more than 100 µM.

`CC(CN1CCN(C)CC1)CN1c2ccccc2Sc2ccc(C(F)(F)F)cc21` (stereo not given): the GI50 in the assay with NCI-H23 lung is 1.83 µM; with UO-31 renal, 1.8 µM; in the assay with T-47D breast, 1.89 µM; in the assay on HOP-62 NSCLC it was 1.71 µM; with EKVX NSCLC, 2.1 µM; in the assay with SK-MEL-28 melanoma it was 1.91 µM. Further, in the assay on PC-3 prostate, the GI50 is 2.09 µM. Moreover, the TGI in the assay with NCI-H23 lung came out at 4.05 µM; in the assay with UO-31 renal, 6.4 µM; in the assay with T-47D breast it was 4.55 µM; with HOP-62 NSCLC, 3.17 µM; in the assay on EKVX NSCLC, 5.38 µM; in the assay on SK-MEL-28 melanoma, 3.42 µM. This molecule gave a TGI in the assay on PC-3 prostate of 5.21 µM.

As for `CC(C)(O)C1CCC(Nc2ccc3ncc(-c4cccc(C(F)(F)F)c4)n3n2)CC1` (stereo not given), the GI50 was 3.16 µM with NCI-H23 lung; 1.07 µM in the assay with UO-31 renal; 1.5 µM in the assay with T-47D breast; 2.37 µM in the assay with HOP-62 NSCLC; 3.82 µM in the assay on EKVX NSCLC; 1.6 µM in the assay on SK-MEL-28 melanoma. Further, the GI50 in the assay on PC-3 prostate was 0.815 µM. The TGI in the assay with NCI-H23 lung is 30.2 µM; with UO-31 renal it was 11 µM; in the assay with T-47D breast it was 5.13 µM; with HOP-62 NSCLC, 11.8 µM; in the assay on EKVX NSCLC it was more than 100 µM; with SK-MEL-28 melanoma it was 3.91 µM. In the assay with PC-3 prostate, this molecule came in with a TGI of 12.7 µM.

As to `COc1ccc(-c2cc(-c3ccccc3)nc(N3CCN(CCNc4ccnc5cc(Cl)ccc45)CC3)n2)cc1`, the GI50 is 1.9 µM in the assay on NCI-H23 lung; 1.4 µM in the assay on UO-31 renal; 1.55 µM in the assay on T-47D breast; 14.6 µM in the assay on BT-549 breast; 1.97 µM in the assay on HOP-62 NSCLC; 19 µM in the assay on EKVX NSCLC. Besides, in the assay on SK-MEL-28 melanoma, the GI50 is 1.52 µM. In addition, the TGI with NCI-H23 lung stood at 5.23 µM; in the assay on UO-31 renal it was 3.37 µM; in the assay on T-47D breast it was 3.73 µM; in the assay with BT-549 breast, 32.3 µM; in the assay with HOP-62 NSCLC, 4.04 µM; with EKVX NSCLC it was 48.3 µM. This molecule returned a TGI in the assay with SK-MEL-28 melanoma of 2.94 µM.

Take `N#Cc1c(N)nc(N2CCOCC2)c(C#N)c1-c1ccc(Cl)cc1`: the GI50 in the assay on NCI-H23 lung was 73.5 µM; in the assay on T-47D breast it was 16.1 µM; in the assay on BT-549 breast, 32 µM; in the assay with HOP-62 NSCLC, more than 100 µM; in the assay with EKVX NSCLC, 22.5 µM; in the assay on SK-MEL-28 melanoma, 70.9 µM. In the assay on PC-3 prostate, the GI50 was 16.6 µM. In addition, the TGI in the assay on NCI-H23 lung, with T-47D breast, in the assay on BT-549 breast, in the assay with HOP-62 NSCLC, with EKVX NSCLC and in the assay on SK-MEL-28 melanoma was more than 100 µM throughout. The TGI with PC-3 prostate came to 70.1 µM.

Regarding `COc1cc2c3c(n(CCCNCC(OC)OC)c(=O)c2cc1OC)-c1cc2c(cc1C3=O)OCO2`, the GI50 is 1.84 µM in the assay on NCI-H23 lung; 2.13 µM with UO-31 renal; 4.06 µM in the assay with BT-549 breast; 0.126 µM in the assay with HOP-62 NSCLC; 15.7 µM in the assay on EKVX NSCLC; 18.4 µM in the assay on SK-MEL-28 melanoma. In addition, the GI50 in the assay with PC-3 prostate was 2.35 µM. For the same molecule, the TGI in the assay with NCI-H23 lung was 29.9 µM; in the assay on UO-31 renal, 22.5 µM; in the assay with BT-549 breast, more than 29.6 µM; in the assay on HOP-62 NSCLC, 4.66 µM; with EKVX NSCLC, more than 57.3 µM; in the assay on SK-MEL-28 melanoma it was 36.3 µM. The molecule further yielded a TGI in the assay with PC-3 prostate of 40.6 µM.

In the case of `Cc1ccc(NC(=O)c2cc3ccccc3c(N=Nc3ccccc3O)c2O)c(C)c1`, the TGI in the assay on HOP-62 NSCLC came to 12.1 µM; in the assay on EKVX NSCLC, 17.3 µM; in the assay with SK-MEL-28 melanoma, 79.1 µM; in the assay with PC-3 prostate, 10 µM.

As for `Cn1c(=O)c(Oc2ccc(F)cc2F)cc2cnc(NC(CO)CO)nc21`, the GI50 in the assay on NCI-H23 lung, in the assay on UO-31 renal, in the assay on T-47D breast, in the assay with BT-549 breast, with HOP-62 NSCLC and in the assay with SK-MEL-28 melanoma was more than 25 µM each time. In the assay on PC-3 prostate, the GI50 is more than 25 µM. Further, the TGI with NCI-H23 lung, in the assay with UO-31 renal, in the assay on T-47D breast, in the assay with BT-549 breast, in the assay with HOP-62 NSCLC and with SK-MEL-28 melanoma was more than 25 µM each time. In the assay on PC-3 prostate, this molecule had a TGI of more than 25 µM.

The values are drawn from PubChem BioAssay (NCI).
